{"source": "patent US9617602B2", "about": "“Methods and compositions for determining resistance to androgen receptor therapy” (Aragon Pharmaceuticals, Inc., priority 2012, dated 2017)", "type_in_all_cases": "cell-based, human", "key": {"LNCaP cells [1]": {"system": "LNCaP cells", "assay": "Proliferation assay (CellTiter-Glo), agonist and antagonist mode"}, "LNCaP/AR(cs) cells [2]": {"system": "LNCaP/AR(cs) cells", "assay": "Proliferation assay (CellTiter-Glo), agonist and antagonist mode"}, "[3]": {"system": "Class 1 ARN-509- and MDV3100-resistant cell lines", "assay": "Proliferation assay (CellTiter-Glo), agonist and antagonist mode"}, "[4]": {"system": "Class 2 MDV3100- and ARN-509-resistant cell lines", "assay": "Proliferation assay (CellTiter-Glo), agonist and antagonist mode"}, "LNCaP cells [5]": {"system": "LNCaP cells", "assay": "Transcriptional reporter assay (probasin-luciferase)", "description": "(§1) With the exception of the LNCaP/AR(cs)-Luc cells that contain an integrated androgen responsive reporter, cells were transiently transfected using Lipofectin® (Life Technologies) according to the manufacturer's protocol. […] Following transfection, the cells were incubated for 4 hours.\n(§2) Following 48 hour incubation the medium was removed and the cells were lysed in 40 μL of lysis buffer (25 mM Tris Phosphate, 2 mM CDTA, 10% Glycerol, 0.5% Triton X-100, 2 mM DTT)."}, "LNCaP/AR(cs) cells [6]": {"system": "LNCaP/AR(cs) cells", "assay": "Transcriptional reporter assay (probasin-luciferase)", "description": "as §1, §2"}, "[7]": {"system": "Class 1 resistant cell lines", "assay": "Transcriptional reporter assay (probasin-luciferase)", "settings": "Class 1", "description": "as §1, §2"}, "[8]": {"system": "Class 2 resistant cell lines", "assay": "Transcriptional reporter assay (probasin-luciferase)", "settings": "Class 2", "description": "as §1, §2"}, "[9]": {"settings": "Homo sapiens, 168 h, read-out: Antagonist Proliferation Assay (% Viability)"}, "[10]": {"settings": "[Antagonists] = 50 μM in presence of R1881"}}, "data": [{"smiles": "CC(O)(CS(=O)(=O)c1ccc(F)cc1)C(=O)Nc1ccc(C#N)c(C(F)(F)F)c1", "note": "(stereo not shown) [Bicalutamide, bicalutamide]", "values": [{"measurement": "viability at 0.0001 µM", "setting": "LNCaP cells [1]; [9]", "value": "< 30", "unit": "%"}, {"measurement": "Agonist Proliferation Assay (% Viability)", "setting": "LNCaP cells [1]; [Antagonists] = 10 μM, 7 days", "value": "+ (‘+’ = <30)"}, {"measurement": "viability at 0.0001 µM", "setting": "LNCaP/AR(cs) cells [2]; Homo sapiens, LNCaP/AR, 168 h, read-out: Antagonist Proliferation Assay (% Viability)", "value": "< 30", "unit": "%"}, {"measurement": "Agonist Proliferation Assay (% Viability)", "setting": "LNCaP/AR(cs) cells [2]; LNCaP/AR(cs), [Antagonists] = 10 μM, 7 days", "value": "+ (‘+’ = <30)"}, {"measurement": "Agonist Proliferation Assay (% Viability)", "setting": "[3]; Class 1, [Antagonists] = 10 μM, 7 days", "value": "++ (‘++’ = >30)"}, {"measurement": "viability at 0.0001 µM", "setting": "[3]; [9]", "value": "> 30", "unit": "%"}, {"measurement": "Agonist Proliferation Assay (% Viability)", "setting": "[4]; Class 2, [Antagonists] = 10 μM, 7 days", "value": "+ (‘+’ = <30)"}, {"measurement": "viability at 0.0001 µM", "setting": "[4]; [9]", "value": "> 30", "unit": "%"}, {"measurement": "Agonist Transcriptional Reporter Assay (% Max Activity)", "setting": "LNCaP cells [5]; [Antagonists] = 50 μM", "value": "+ (‘+’ = <5)"}, {"measurement": "Antagonist Transcriptional Reporter Assay (% Max Activity)", "setting": "LNCaP cells [5]; [10]", "value": "+ (‘+’ = <5)"}, {"measurement": "Agonist Transcriptional Reporter Assay (% Max Activity)", "setting": "LNCaP/AR(cs) cells [6]; [Antagonists] = 50 μM", "value": "+ (‘+’ = <5)"}, {"measurement": "Antagonist Transcriptional Reporter Assay (% Max Activity)", "setting": "LNCaP/AR(cs) cells [6]; [10]", "value": "+ (‘+’ = <5)"}, {"measurement": "Agonist Transcriptional Reporter Assay (% Max Activity)", "setting": "[7]; [Antagonists] = 50 μM", "value": "++ (‘++’ = >5)"}, {"measurement": "Antagonist Transcriptional Reporter Assay (% Max Activity)", "setting": "[7]; [10]", "value": "++ (‘++’ = >5)"}, {"measurement": "Agonist Transcriptional Reporter Assay (% Max Activity)", "setting": "[8]; [Antagonists] = 50 μM", "value": "+ (‘+’ = <5)"}, {"measurement": "Antagonist Transcriptional Reporter Assay (% Max Activity)", "setting": "[8]; [10]", "value": "+ (‘+’ = <5)"}]}]}
